# Measured values: US7235674B2, “Substituted coumarins and quinolines and analogs as activators of caspases and inducers of apoptosis and the use thereof” (Cytovia, Inc., priority 2001, dated 2007)
# Experiments:
# [1] = system: Human breast cancer cell line ZR-75-1; assay: Caspase cascade activation assay (N-(Ac-DEVD)-N'-ethoxycarbonyl-R110 fluorogenic substrate) in ZR-75-1 cells; type: cell-based; conditions: for Caspase activity (Ratio) ZR-75-1: ratio of net RFU of test compound to control, 3 h substrate reading; for maximal fold induction: ZR-75-1, 24 h, read-out: Max efficacy ZR751
# Protocol: (§1) Human breast cancer cell lines T-47D and ZR-75-1 were grown according to media component mixtures designated by American Type Culture Collection +10% FCS (Invitrogen Corporation), in a 5% CO2 −95% humidity incubator at 37° C. T-47D and ZR-75-1 cells were maintained at a cell density between 30 and 80% confluency at a cell density of 0.1 to 0.6×10^6 cells/mL. Cells were harvested at 600×g and resuspended at 0.65×10^6 cells/mL into appropriate media +10% FCS. An aliquot of 45 μl of cells was added to a well of a 96-well microtiter plate containing 5 μl of a 10% DMSO in RPMI-1640 media solution containing 0.16 to 10 μM of 3-cyano-7-methoxy-4-(3-bromo-4,5-dimethoxyphenyl)-2-oxo-2H-chromene (Example 1) or other test compound (0.016 to 1 μM final). An aliquot of 45 μl of cells was added to a well of a 96-well microtiter plate containing 5 μl of a 10% DMSO in RPMI-1640 media solution without test compound as the control sample. The samples were mixed by agitation and then incubated at 37° C. for 24 h in a 5% CO2 −95% humidity incubator. After incubation, the samples were removed from the incubator and 50 μl of a solution containing 20 μM of N-(Ac-DEVD)-N′-ethoxycarbonyl-R110 fluorogenic substrate (SEQ ID NO:1) (Cytovia, Inc.; WO99/18856), 20% sucrose (Sigma), 20 mM DTT (Sigma), 200 mM NaCl (Sigma), 40 mM Na PIPES buffer pH 7.2 (Sigma), and 500 μg/ml lysolecithin (Calbiochem) was added. The samples were mixed by agitation and incubated at room temperature. Using a fluorescent plate reader (Model 1420 Wallac Instruments), an initial reading (T=0) was made approximately 1-2 min after addition of the substrate solution, employing excitation at 485 nm and emission at 530 nm, to determine the background fluorescence of the control sample. After the 3 h incubation, the samples were read for fluorescence as above (T=3 h).
# (§2) The Relative Fluorescence Unit values (RFU) were used to calculate the sample readings as follows: RFU(T=3 h)−Control RFU(T=0)=Net RFU(T=3 h)
# (§3) The activity of caspase cascade activation was determined by the ratio of the net RFU value for 3-cyano-7-methoxy-4-(3-bromo-4,5-dimethoxy-phenyl)-2-oxo-2H-chromene, or other test compound, to that of control samples. The EC50 (nM) was determined by a sigmoidal dose-response calculation (Prism 2.0, GraphPad Software Inc.).
# [2] = system: Human breast cancer cell line T-47D; assay: Caspase cascade activation assay (N-(Ac-DEVD)-N'-ethoxycarbonyl-R110 fluorogenic substrate) in T-47D cells; type: cell-based; conditions: for Caspase activity (Ratio) T-47D: ratio of net RFU of test compound to control, 3 h substrate reading
# Protocol: as §1, §2, §3
# [3] = Homo sapiens, caspase cascade activation potency, ZR-75-1 cells, 24 h incubation
# [4] = Homo sapiens, T47D, caspase cascade activation potency, T-47D cells, 24 h incubation
# [5] = caspase cascade activation potency, ZR-75-1 cells, 24 h incubation
# [6] = caspase cascade activation potency, T-47D cells, 24 h incubation
# [7] = Homo sapiens, commercial fused-pyridine compounds, ZR751 cells
# [8] = Homo sapiens, ZR-75-1, commercial fused-pyridine compounds, ZR751 cells
# [9] = commercial fused-pyridine compounds, T47D cells
"EC50 [1, 3] [nM]","EC50 [2, 4] [nM]",Compound,"Caspase activity (Ratio) ZR-75-1 ([1]; ZR-75-1 cells, 24 h incubation)","Caspase activity (Ratio) T-47D ([2]; T-47D cells, 24 h incubation)",other results
405,585,"COc1ccc(OC)c(C2=c3ccc4c(c3OC(=O)C2C#N)C=CN=4)c1 (stereo not drawn) [Example 24, 3-Cyano-4-(2,5-dimethoxyphenyl)-2-oxo-2H-pyrrolo[2,3-h]chromene]",7.1,4.5,–
22,> 100,"Cn1ccc2c3oc(=O)c(C#N)c(-c4cccc([N+](=O)[O-])c4)c3ccc21 [Example 38, 3-Cyano-7-methyl-4-(3-nitro-phenyl)-2-oxo-2H-pyrrolo[2,3-h]chromene]",5.0,1.8,–
–,2500,"COc1cc(-c2c(C#N)c(=N)oc3cc(N(C)C)ccc23)cc(Br)c1OC [Example 31, 2-Imino-3-cyano-7-dimethylamino-4-(3-bromo-4,5-dimethoxyphenyl)-2H-chromene]",–,–,–
97,257,"COc1ccc2c(-c3cc(Br)c(OC)c(OC)c3)c(C#N)c(=O)oc2c1 [Example 1, 3-Cyano-7-methoxy-4-(3-bromo-4,5-dimethoxyphenyl)-2-oxo-2H-chromene]",4.2,6.2,–
429,456,"COc1cc(OC)cc(-c2c(C#N)c(=O)oc3cc(N(C)C)ccc23)c1 [Example 23, 3-Cyano-7-dimethylamino-4-(3,5-dimethoxyphenyl)-2-oxo-2H-chromene]",7.2,2.3,–
111,200,"COc1cccc(C2=c3ccc4c(c3OC(=O)C2C#N)C=CN=4)c1 (stereo not drawn) [Example 5, 3-Cyano-4-(3-methoxyphenyl)-2-oxo-2H-pyrrolo[2,3-h]chromene]",10.4,2.0,–
22,55,"COc1cccc(-c2c(C#N)c(=O)oc3c2ccc2c3ccn2C)c1 [Example 41, 3-Cyano-4-(3-methoxy-phenyl)-7-methyl-2-oxo-2H-pyrrolo[2,3-h]chromene]",4.9,2.3,–
400,–,"COc1cc(OC)cc(-c2c(C#N)c(=O)oc3cc(N)ccc23)c1 [Example 22, 7-Amino-3-cyano-4-(3,5-dimethoxyphenyl)-2-oxo-2H-chromene]",3.4,1.5,"EC50 (nM) T-47D [2, 6]: Inactive"
–,2960,"COc1cc(-c2c(C#N)c(=O)oc3cc(Cl)ccc23)cc(Br)c1OC [Example 28, 4-(3-Bromo-4,5-dimethoxy-phenyl)-7-chloro-3-cyano-2-oxo-2H-chromene]",–,2.2,–
43.4,99.7,"COc1cccc(-c2c(C#N)c(=O)oc3cc(OC)ccc23)c1 [Example 17, 3-Cyano-4-(3-methoxy-phenyl)-7-methoxy-2-oxo-2H-chromene]",11.7,8.9,–
24,> 100,"COc1cc(-c2c(C#N)c(=O)oc3c2ccc2c3ccn2C)cc2c1OCO2 [Example 40, 3-Cyano-4-(3-methoxy-4,5-methylenedioxyphenyl)-7-methyl-2-oxo-2H-pyrrolo[2,3-h]chromene]",4.9,1.7,–

# Continued, molecule first:
Compound,"EC50 [1, 3] [nM]","EC50 [2, 4] [nM]","Caspase activity (Ratio) ZR-75-1 ([1]; ZR-75-1 cells, 24 h incubation)","Caspase activity (Ratio) T-47D ([2]; T-47D cells, 24 h incubation)",other results
"COc1cc(OC)cc(C2=c3ccc4c(c3OC(=O)C2C#N)C=CN=4)c1 (stereo not drawn) [Example 16, 4-(3,5-Dimethoxyphenyl)-3-cyano-2-oxo-2H-pyrrolo[2,3-h]chromene]",174,106,3.6,3.1,–
"N#Cc1c(-c2ccccc2)c2ccccc2[nH]c1=O [Example 6, 3-Cyano-4-phenyl-quinolin-1H-2-one]",–,–,10.6,9.1,"EC50 [1, 5]: 882 nM; EC50 [2, 6]: 4800 nM"
COc1ccc(-c2c(C#N)c(N)nc3c2CCc2ccccc2-3)cc1OC [compound 45],–,–,–,–,"maximal fold induction [1, 7]: 7; EC50 [1, 8]: 571 nM; EC50 (nM) T47D [2, 9]: Inactive; Max efficacy T47D [2, 9]: Inactive"
N#Cc1c(N)nc2sc(C(N)=O)c(N)c2c1-c1ccc(Br)cc1 [compound 47],–,–,–,–,"maximal fold induction [1, 7]: 2.7; EC50 [1, 8]: 6110 nM; EC50 (nM) T47D [2, 9]: Inactive; Max efficacy T47D [2, 9]: Inactive"
N#Cc1c(N)nc2[nH]c(=S)[nH]c(=O)c2c1-c1ccc(Cl)cc1 [compound 51],–,–,–,–,"maximal fold induction [1, 7]: 2.8; EC50 [1, 8]: 5380 nM; EC50 (nM) T47D [2, 9]: Inactive; Max efficacy T47D [2, 9]: Inactive"
"N#Cc1c(-c2ccccc2)c2ccccc2oc1=N [Example 3, 3-Cyano-2-imino-4-phenyl-2H-chromene]",–,–,Inactive,Inactive,"EC50 (nM) ZR-75-1 [1, 5]: Inactive; EC50 (nM) T-47D [2, 6]: Inactive"
N#Cc1c(N)nc2c(c1-c1cccs1)CCCC2 [compound 46],–,–,–,–,"maximal fold induction [1, 7]: 3.1; EC50 [1, 8]: 3410 nM; EC50 (nM) T47D [2, 9]: Inactive; Max efficacy T47D [2, 9]: Inactive"
"COc1cccc(-c2c(C#N)c(=O)[nH]c3cc(Cl)ccc23)c1 [Example 8, 7-Chloro-3-cyano-4-(3-methoxy-phenyl)-quinolin-1H-2-one]",–,–,10.1,4.1,"EC50 [1, 5]: 878 nM; EC50 [2, 6]: 1170 nM"
COc1ccc(-c2c(C#N)c(N)nc3c2CCCC3C)cc1 (stereo not drawn) [compound 49],–,–,–,–,"maximal fold induction [1, 7]: 4.8; EC50 [1, 8]: 5710 nM; EC50 (nM) T47D [2, 9]: Inactive; Max efficacy T47D [2, 9]: Inactive"
COc1ccc(-c2c(C#N)c(N)nc3c2CN(C)CC3)cc1OC [compound 50],–,–,–,–,"maximal fold induction [1, 7]: 2.4; EC50 [1, 8]: 576 nM; EC50 (nM) T47D [2, 9]: Inactive; Max efficacy T47D [2, 9]: Inactive"
"COc1cc(OC)cc(-c2c(C#N)c(=O)oc3c2ccc2c3ccn2C)c1 [Example 39, 3-Cyano-4-(3,5-dimethoxy-phenyl)-7-methyl-2-oxo-2H-pyrrolo[2,3-h]chromene]",20,> 100,5.2,1.9,–
COc1ccccc1-c1c(C#N)c(N)nc2c1CCc1ccccc1-2 [compound 44],–,–,–,–,"maximal fold induction [1, 7]: 19.2; EC50 [1, 8]: 2040 nM; maximal fold induction ([2]; Homo sapiens, 24 h, commercial fused-pyridine compounds, T47D cells, read-out: Max efficacy T47D): 10.7; EC50 ([2]; Homo sapiens, commercial fused-pyridine compounds, T47D cells): 3120 nM"
"COc1ccc2c(-c3cc(Br)c(OC)c(OC)c3)c(C#N)c(=O)[nH]c2c1 [Example 9, 4-(3-Bromo-4,5-dimethoxy-phenyl)-3-cyano-7-methoxy-quinolin-1H-2-one]",–,–,7.4,4.4,"EC50 [1, 5]: 2050 nM; EC50 [2, 6]: 4410 nM"
"COc1cc(-c2c(C#N)c(=N)oc3cc(N)ccc23)cc(Br)c1OC [Example 26, 7-Amino-4-(3-bromo-4,5-dimethoxy-phenyl)-3-cyano-2-imino-2H-chromene]",2770,–,8.8,1.9,"EC50 (nM) T-47D [2, 6]: Inactive"
"COc1cc(-c2c(C#N)c(N)nc3c2CCc2ccccc2-3)cc(Br)c1OC [Example 19, 2-Amino-4-(3-bromo-4,5-dimethoxyphenyl)-3-cyano-5,6-dihydro-benzo[h]quinoline]",556,4060,7.9,5.4,–
